Measurements taken from US9035022B2, “Cyclic CRF antagonist peptides” (Salk Institute for Biological Studies, priority 2010, dated 2015).

Tested on: adrenalectomized (ADX) rats
Test: In vivo assay of ACTH secretion in adrenalectomized (ADX) rats
Parameters: species or system rat
Protocol: The in vivo assays which are employed to test these CRF antagonists use adrenalectomized (ADX) rats. […] Their diet is supplemented with 0.9% NaCl in the drinking water and with oranges. Two days prior to the experiments, the animals are equipped with jugular cannulae, as described in C. […] On the morning of the experiments, the i.v. cannulae are connected to a line filled with heparinized saline, and the rats are placed in individual buckets and left undisturbed for 2 hours. For the experiment, a first blood sample of 0.3 mL is withdrawn, the test solution is injected (in an 0.2-0.5 mL volume), and subsequent blood samples are obtained at about 15, 45, 90 and 120 minutes. The blood samples are centrifuged, and the separated plasma are kept frozen (−20° C.) until assayed for ACTH values. Plasma ACTH levels are measured as described in C.

[Aib^19,24,32, Orn^25]-Astressin B [V]
inhibition of secretion of ACTH and corticosterone (general procedure of Example I): inhibits the secretion of ACTH and corticosterone

[Tyr-Asp^1, Aib^19,24,32]-Astressin B [IV]
inhibition of secretion of ACTH and β-END-LI (administration of the peptide): inhibits the secretion of ACTH and β-END-LI
